Measured values as given in the supplement of paper PMC13380429.

What was measured:
Settings in all cases: 72 h
Caco-2 [1] = assay: cell viability relative to DMSO; higher = less toxic
HepG2 [2] = assay: as above
U2OS [3] = assay: as above
Calu-3 [4] = assay: as above
Vero E6 [5] = assay: as above
Caco-2 [6] = assay: relative viability EC50 (midpoint between 100% and the lowest measured viability); higher = less toxic
HepG2 [7] = assay: as above
U2OS [8] = assay: as above
Calu-3 [9] = assay: as above
Vero E6 [10] = assay: as above
Caco-2 [11] = assay: drug sensitivity score (DSS) for viability; higher = more toxic; extreme values may be limits of the assay
HepG2 [12] = assay: as above
U2OS [13] = assay: as above
Calu-3 [14] = assay: as above
Vero E6 [15] = assay: as above

SMILES | cell viability (Caco-2 [1]; 1 nM) [%] | cell viability (Caco-2 [1]; 10 nM) [%] | cell viability (Caco-2 [1]; 100 nM) [%] | cell viability (Caco-2 [1]; 1000 nM) [%] | cell viability (Caco-2 [1]; 10000 nM) [%] | cell viability (HepG2 [2]; 1 nM) [%] | cell viability (HepG2 [2]; 10 nM) [%] | cell viability (HepG2 [2]; 100 nM) [%] | cell viability (HepG2 [2]; 1000 nM) [%] | cell viability (HepG2 [2]; 10000 nM) [%] | cell viability (U2OS [3]; 1 nM) [%] | cell viability (U2OS [3]; 10 nM) [%] | cell viability (U2OS [3]; 100 nM) [%] | cell viability (U2OS [3]; 1000 nM) [%] | cell viability (U2OS [3]; 10000 nM) [%] | cell viability (Calu-3 [4]; 1 nM) [%] | cell viability (Calu-3 [4]; 10 nM) [%] | cell viability (Calu-3 [4]; 100 nM) [%] | cell viability (Calu-3 [4]; 1000 nM) [%] | cell viability (Calu-3 [4]; 10000 nM) [%] | cell viability (Vero E6 [5]; 1 nM) [%] | cell viability (Vero E6 [5]; 10 nM) [%] | cell viability (Vero E6 [5]; 100 nM) [%] | cell viability (Vero E6 [5]; 1000 nM) [%] | cell viability (Vero E6 [5]; 10000 nM) [%] | relative viability EC50 (Caco-2 [6]) [µM] | relative viability EC50 (HepG2 [7]) [µM] | relative viability EC50 (U2OS [8]) [µM] | relative viability EC50 (Calu-3 [9]) [µM] | relative viability EC50 (Vero E6 [10]) [µM] | drug sensitivity score (Caco-2 [11]) | drug sensitivity score (HepG2 [12]) | drug sensitivity score (U2OS [13]) | drug sensitivity score (Calu-3 [14]) | drug sensitivity score (Vero E6 [15])
COc1ccc(C2CNC(=O)NC2)cc1O[C@H]1C[C@@H]2CC[C@H]1C2 [atizoram] | 95.3 | 96.9 | 98.6 | 96.6 | 102 | 99 | 107 | 102 | 94.1 | 82.8 | 106 | 96.5 | 101 | 102 | 103 | 103 | 102 | 96.3 | 108 | 108 | 96.5 | 105 | 100 | 99.5 | 87.4 | > 10 | > 10 | > 10 | > 10 | > 10 | 0 | 1 | 0 | 0 | 0.1
NCCc1cc[nH]n1 [betazole] | 89 | 91.4 | 84.3 | 92.6 | 107 | 100 | 106 | 92.9 | 98 | 125 | 102 | 99.5 | 105 | 102 | 108 | 97.2 | 102 | 97.2 | 101 | 109 | 94.4 | 104 | 92.8 | 106 | 106 | > 10 | > 10 | > 10 | > 10 | > 10 | 0 | 0 | 0 | 0 | 0
COc1ccc(CCNCC(O)COc2cccc(C)c2)cc1OC (stereo not given) [bevantolol] | 94.3 | 111 | 103 | 90.3 | 104 | 90.1 | 87.2 | 99.7 | 89.8 | 92.1 | 101 | 95.9 | 101 | 101 | 99.8 | 107 | 103 | 102 | 113 | 96 | 98.5 | 95.8 | 94.7 | 90.1 | 98.7 | > 10 | > 10 | > 10 | > 10 | > 10 | 0 | 0 | 0 | 0 | 0
